Marks after values point to notes of the source that are not given here.
Columns and labels:
[1] = system: heart function biomarkers (LDH, CK-MB, and troponin); assay: Cardiac function biomarkers in rat serum; type: in vivo, rats; settings: 50 mg/kg/day p.o. for 2 weeks, mean ± SEM
Experimental: (§1) Eighteen rats were divided into three groups at random (6 animals in each group). The first group was given a vehicle and served as normal control. […] Ketamine (100 mg/kg) was used to anaesthetise the animals on the 15th day. Blood samples were obtained from the retro orbital, allowed to clot, centrifuged at 1000 g for 15 min, and utilised to examine heart function biomarkers (LDH, CK-MB, and troponin). The abdomen of each rat was opened, and the heart was extracted and washed in ice-cold physiological saline before being harnessed for histological investigation.

[2] = system: stomach; assay: Histopathological examination of stomach; type: in vivo, rats; settings: rat, in vivo
Experimental: In brief, the stomachs of each animal group’s rat were fixed in 10% neutral buffered formalin for 48 h. The sections were then dehydrated, cleared, fixed in paraffin, sectioned ([…]), and stained with H&E stain.

[3] = system: heart; assay: Histopathological examination of the heart; type: in vivo; settings: rats, two weeks administration, H&E stain
Experimental: as §1

[4] = system: stomach mucosa; assay: Ulcerogenic liability (ulcer index); type: in vivo; settings: rats, 50 mg/kg dosage for three consecutive days, mean of 6 rats
Experimental: In this study, adult male Wister albino rats weighing 160–180 g were used. Before any experimental procedure, rats were given 14 days to acclimate. These rats were maintained in a controlled setting with food and water available. All experiments were conducted in accordance with laboratory animal care guidelines. All experimental procedures were carried out in accordance with the regulations of the Committee of Ethics for Scientific Research on Living Organisms, Faculty of Pharmacy, Nahda University, Beni-Suef (NUB). The approval number was (NUB-019–025). […] Before drug administration, rats were fasted for 18 h and then separated into four groups. The control group received a suspension of the vehicle (10% DMSO in saline was given P.O (100 mg/kg) once daily). […] Rats were given the required dose for three consecutive days. Following the last dose, the stomachs of each rat were dissected and opened via the greater curvature and rinsed with saline. For investigation, the dissected stomach was stretched with pins on a cork board. Through illuminated magnifying lenses, the stomach mucosa was examined for the existence of ulcers. Cho and Ogle’s method[45]^,[46] was used to calculate the ulcer index.

[5] = antimicrobial and antifungal activity; cited from earlier work
[6] = system: Gram-positive bacteria, Gram-negative bacteria, and yeast fungus; assay: Disc diffusion antimicrobial screening, whole panel; type: cell-based; settings: all tested Gram-positive and Gram-negative bacteria, read-out: diameters of inhibition zones
Experimental: All compounds were screened for their antimicrobial activity at the Microbiology and Immunology Department, Faculty of Pharmacy, Beni-Suef University. The antimicrobial activity screening was carried out using the disc diffusion method, as described earlier, with some adjustments.
For each indicator microbe, a solution of half McFarland turbidity was prepared in sterile saline, followed by surface streaking of the strains on Mueller-Hinton agar with a sterile cotton swab. Then, sterile filter paper discs (5 mm diameter) preloaded with 100 µg of each compound were applied to the surface of the pre-inoculated plates. Then, the plates were chilled at 4 °C for 100 min before being incubated overnight at the proper temperature for microbial growth. Finally, the diameter of the inhibition zones around each disc was measured to evaluate the antimicrobial activity of the compounds. Ciprofloxacin was used as a standard antibacterial agent at a concentration of 20 µg/disc. Furthermore, DMSO-loaded discs were used as a negative control.

CK-MB [1]	LDH [1]	Troponin I [1]	Structure (SMILES)	stomach histopathology finding [2]	heart histopathology finding [3]	Ulcer index [4]	Ulcer index ([4]; listed as celecoxib)	MIC [5]	zone of inhibition at 20 µg/disc [6]
0.635 ± 0.065^a ng/ml	690 ± 08^a U/L	0.1500 ± 0.0420^a ng/ml	Cc1ccc(-c2cc(C(F)(F)F)nn2-c2ccc(S(N)(=O)=O)cc2)cc1 [Celecoxib, reference compound]	multiple complete ulcers and superficial mucosal erosions with disrupted mucous layer	scattered inflamed cardiac muscle fibres with vacuolar degenerated myocytes	3.79^b	3.79		
			O=C(O)c1cn(C2CC2)c2cc(N3CCNCC3)c(F)cc2c1=O [ciprofloxacin]					< 3.90 µg/mL	34 to 48 mm
